# Laboratory results as given in US11191762B2, “Alkyl substituted triazole compounds as agonists of the APJ Receptor” (priority 2016, dated 2021).
# Like-named read-outs stand apart in the source and are kept apart here.
# Target: human APJ receptor (Homo sapiens (Human), UniProt P35414)
# Experiment: biochemical
# Type: biochemical
# Procedure, shortened: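 [35S]GTPγS binding to membranes from CHO cells stably expressing human APJ, captured on WGA PS beads (5 μg/well). Buffer: 20 mM HEPES pH 7.5, 5 mM MgCl2, 100 mM NaCl, 0.1% BSA, with 3 μM GDP and 0.1 nM [35S]GTPγS final; compounds tested as 22-point 2-fold dilutions.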
# [1] = [35S]GTPγS binding, membranes from CHO cells stably expressing human APJ receptor, read-out: Activity hAPJ SPA EC50 IP
# [2] = read-out: Activity hAPJ SPA EC50 IP
# Chain of human APJ receptor (P35414 whole entry): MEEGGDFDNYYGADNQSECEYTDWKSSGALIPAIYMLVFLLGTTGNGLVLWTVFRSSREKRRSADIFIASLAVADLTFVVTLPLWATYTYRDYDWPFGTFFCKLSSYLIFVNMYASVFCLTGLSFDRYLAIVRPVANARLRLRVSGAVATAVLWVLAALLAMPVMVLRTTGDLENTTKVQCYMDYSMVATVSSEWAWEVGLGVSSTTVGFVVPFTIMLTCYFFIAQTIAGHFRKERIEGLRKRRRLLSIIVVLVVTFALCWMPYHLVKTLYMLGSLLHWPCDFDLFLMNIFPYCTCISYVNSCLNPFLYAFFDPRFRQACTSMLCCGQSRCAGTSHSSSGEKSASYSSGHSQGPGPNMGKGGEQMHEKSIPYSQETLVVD
Compound,EC50 [1] [nM],also measured
"COc1ncnc(OC)c1-n1c(Cc2ccccc2)nnc1NS(=O)(=O)[C@@H](C)[C@H](C)c1ncc(C)cn1 [Example 23.0, (2S,3R)-N-(5-benzyl-4-(4,6-dimethoxy-5-pyrimidinyl)-4H-1,2,4-triazol-3-yl)-3-(5-methyl-2-pyrimidinyl)-2-butanesulfonamide]",400,
CCC(CC)n1c(COC)nnc1NS(=O)(=O)[C@@H](C)[C@H](OC)c1ncc(Cl)cn1 [Example 147.0],170,
"COCc1nnc(NS(=O)(=O)[C@@H](C)[C@H](OC)c2ncc(C)cn2)n1-c1c(OC)cccc1OC [Example 60.0, (1R,2S)-N-(4-(2.6-dimethoxyphenyl)-5-(methoxymethyl)-4H-1.2,4-triazol-3-yl)-1-methoxy-1-(5-methylpyrimidin-2-yl)propane-2-sulfonamide]",,EC50 [2]: 22 nM
"CO[C@H](c1ncc(Cl)cn1)[C@H](C)S(=O)(=O)Nc1nnc(C)n1C1(C)CC1 [Example 55.0, (1R,2S)-1-(5-chloropyrimidin-2-yl)-1-methoxy-N-(5-methyl-4-(1-methylcyclopropyl)-4H-1,2,4-triazol-3-yl)propane-2-sulfonamide]",540,
"COc1cccc(OC)c1-n1c(Cc2cccnc2)nnc1NS(=O)(=O)[C@@H](C)[C@H](C)c1ncc(C)cn1 [Example 15.0, (2S,3R)-N-(4-(2,6-dimethoxyphenyl)-5-(3-pyridinylmethyl)-4H-1,2,4-triazol-3-yl)-3-(5-methyl-2-pyrimidinyl)-2-butanesulfonamide]",180,
"(1R.2S)-1-(5-chloropyrimidin-2-yl)-1-methoxy-N-(4-(1-methylcyclopropyl)-5-(((R)-tetrahydrofuran-2-yl)methyl)-4H-1,2,4-triazol-3-yl)propane-2-sulfonamide or (1R,2S)-1-(5-chloropyrimidin-2-yl)-1-methoxy-N-(4-(1-methylcyclopropyl)-5-(((S)-tetrahydrofuran-2-yl)methyl)-4H-1,2,4-triazol-3-yl)propane-2-sulfonamide [Example 57.0]",42,
"COc1ncnc(OC)c1-n1c(CC(C)C)nnc1NS(=O)(=O)[C@@H](C)[C@H](OC)c1ncc(Cl)cn1 [Example 31.0, (1R,2S)-1-(5-chloro-2-pyrimidinyl)-N-(4-(4,6-dimethoxy-5-pyrimidinyl)-5-(2-methylpropyl)-4H-1,2,4-triazol-3-yl)-1-methoxy-2-propanesulfonamide]",7.6,
"COCc1nnc(NS(=O)(=O)[C@@H](C)[C@H](OC)c2ccc(Cl)cn2)n1-c1c(OC)cccc1OC [Example 76.0, (1R,2S)-1-(5-chloropyridin-2-yl)-N-(4-(2,6-dimethoxyphenyl)-5-(methoxymethyl)-4H-1,2,4-triazol-3-yl)-1-methoxypropane-2-sulfonamide]",,EC50 [2]: 4.8 nM
"COc1cccc(OC)c1-n1c(CO)nnc1NS(=O)(=O)[C@@H](C)[C@H](OC)c1ncc(Cl)cn1 [Example 64.0, (1R,2S)-1-(5-chloropyrimidin-2-yl)-N-(4-(2,6-dimethoxyphenyl)-5-(hydroxymethyl)-4H-1.2.4-triazol-3-yl)-1-methoxypropane-2-sulfonamide]",,EC50 [2]: 20 nM
"COc1ncnc(OC)c1-n1c(COC(F)F)nnc1NS(=O)(=O)[C@@H](C)[C@H](C)c1ncc(Cl)cn1 [Example 127.0, (2S,3R)-3-(5-chloropyrimidin-2-yl)-N-(5-((difluoromethoxy)methyl)-4-(4,6-dimethoxypyrimidin-5-yl)-4H-1,2,4-triazol-3-yl)butane-2-sulfonamide]",38,
"COc1cccc(OC)c1-n1c(COC(F)F)nnc1NS(=O)(=O)[C@@H](C)[C@H](OC)c1ncc(Cl)cn1 [Example 65.0, (1R,2S)-1-(5-chloro-2-pyrimidinyl)-N-(5-((difluoromethoxy)methyl)-4-(2,6-dimethoxyphenyl)-4H-1,2,4-triazol-3-yl)-1-methoxy-2-propanesulfonamide]",,EC50: 5.7 nM
"COc1ncnc(OC)c1-n1c(NS(=O)(=O)[C@@H](C)[C@H](C)c2ncc(Cl)cn2)nnc1[C@@H](C)OC(C)C (single isomer, unassigned) [Example 2.0, (2S,3R)-3-(5-chloro-2-pyrimidinyl)-N-(4-(4,6-dimethoxy-5-pyrimidinyl)-5-((1R)-1-(1-methylethoxy)ethyl)-4H-1,2,4-triazol-3-yl)-2-butanesulfonamide or (2S,3R)-3-(5-chloro-2-pyrimidinyl)-N-(4-(4,6-dimethoxy-5-pyrimidinyl)-5-((1S)-1-(1-methylethoxy)ethyl)-4H-1,2,4-triazol-3-yl)-2-butanesulfonamide]",170,
"COCc1nnc(NS(=O)(=O)[C@@H](C)[C@@H](OC(C)C)c2ncc(C)cn2)n1-c1c(OC)cccc1OC [Example 62.0, (1S,2S)-N-(4-(2,6-dimethoxyphenyl)-5-(methoxymethyl)-4H-1,2,4-triazol-3-yl)-1-isopropoxy-1-(5-methylpyrimidin-2-yl)propane-2-sulfonamide]",,EC50 [2]: 1000 nM
"COCCc1nnc(NS(=O)(=O)[C@@H](C)[C@H](C)c2ncc(Cl)cn2)n1-c1c(OC)cccc1OC [Example 32.0, (2S,3R)-3-(5-chloro-2-pyrimidinyl)-N-(4-(2,6-dimethoxyphenyl)-5-(2-methoxyethyl)-4H-1,2,4-triazol-3-yl)-2-butanesulfonamide]",10,
"COc1cccc(OC)c1-n1c(NS(=O)(=O)[C@@H](C)[C@H](C)c2ncc(C)cn2)nnc1[C@H](OC)c1ccccc1 [Example 18.0, (2S,3R)-N-(4-(2,6-dimethoxyphenyl)-5-((R)-methoxy(phenyl)methyl)-4H-1,2,4-triazol-3-yl)-3-(5-methyl-2-pyrimidinyl)-2-butanesulfonamide]",240,
"CCO[C@H](c1ncc(C)cn1)[C@H](C)S(=O)(=O)Nc1nnc(COC)n1-c1c(OC)cccc1OC [Example 73.0, (1R,2S)-N-(4-(2,6-dimethoxyphenyl)-5-(methoxymethyl)-4H-1,2,4-triazol-3-yl)-1-ethoxy-1-(5-methylpyrimidin-2-yl)propane-2-sulfonamide]",,EC50 [2]: 37.5 nM
CO[C@H](c1ncc(Cl)cn1)[C@H](C)S(=O)(=O)Nc1nnc(CC(F)(F)F)n1C1CCOCC1 [Example 139.0],> 4200,
"COCc1nnc(NS(=O)(=O)[C@@H](C)[C@H](C)c2cnc(C)cn2)n1-c1c(OC)cccc1OC [Example 8.0, (2S,3R)-N-(4-(2,6-dimethoxyphenyl)-5-(methoxymethyl)-4H-1,2,4-triazol-3-yl)-3-(5-methyl-2-pyrazinyl)-2-butanesulfonamide]",260,
COCCn1c(COC)nnc1NS(=O)(=O)[C@@H](C)[C@H](OC)c1ncc(Cl)cn1 [Example 156.0],520,
"COc1ncnc(OC)c1-n1c(Cc2ccccc2)nnc1NS(=O)(=O)[C@@H](C)[C@H](OC)c1ncc(Cl)cn1 [Example 22.0, (1R,2S)-N-(5-benzyl-4-(4,6-dimethoxy-5-pyrimidinyl)-4H-1,2,4-triazol-3-yl)-1-(5-chloro-2-pyrimidinyl)-1-methoxy-2-propanesulfonamide]",120,
"COc1cccc(OC)c1-n1c(Cc2cc[nH]n2)nnc1NS(=O)(=O)[C@@H](C)[C@H](C)c1ncc(Cl)cn1 [Example 39.0, (2S,3R)-3-(5-chloro-2-pyrimidinyl)-N-(4-(2,6-dimethoxyphenyl)-5-(1H-pyrazol-3-ylmethyl)-4H-1,2,4-triazol-3-yl)-2-butanesulfonamide]",5.8,
"(S)-N-(4-(2,6-dimethoxyphenyl)-5-(methoxymethyl)-4H-1,2,4-triazol-3-yl)-1-(5-fluoropyrimidin-2-yl)piperidine-3-sulfonamide or (R)-N-(4-(2,6-dimethoxyphenyl)-5-(methoxymethyl)-4H-1,2,4-triazol-3-yl)-1-(5-fluoropyrimidin-2-yl)piperidine-3-sulfonamide [Example 77.0]",176,
"COc1ncnc(OC)c1-n1c(COC(C)C)nnc1NS(=O)(=O)[C@@H](C)[C@H](C)c1ncc(Cl)cn1 [Example 80.0, (2S,3R)-3-(5-chloropyrimidin-2-yl)-N-(4-(4,6-dimethoxypyrimidin-5-yl)-5-(isopropoxymethyl)-4H-1,2,4-triazol-3-yl)butane-2-sulfonamide]",2.4,
"COCc1nnc(NS(=O)(=O)[C@@H](C)[C@H](C)c2ncc(F)cn2)n1-c1c(OC)cccc1OC [Example 68.0, (2S,3R)-N-(4-(2,6-dimethoxyphenyl)-5-(methoxymethyl)-4H-1,2,4-triazol-3-yl)-3-(5-fluoropyrimidin-2-yl)butane-2-sulfonamide]",,EC50 [2]: 33 nM
"CO[C@H](c1ncc(Cl)cn1)[C@H](C)S(=O)(=O)Nc1nnc(CC2CCC2)n1C1CCOCC1 [Example 25.0, (1R,2S)-1-(5-chloro-2-pyrimidinyl)-N-(5-(cyclobutylmethyl)-4-(tetrahydro-2H-pyran-4-yl)-4H-1,2,4-triazol-3-yl)-1-methoxy-2-propanesulfonamide]",370,
"COc1cccc(OC)c1-n1c(Cc2ccccn2)nnc1NS(=O)(=O)[C@@H](C)[C@H](C)c1ncc(Cl)cn1 [Example 35.0, (2S,3R)-3-(5-chloro-2-pyrimidinyl)-N-(4-(2,6-dimethoxyphenyl)-5-(2-pyridinylmethyl)-4H-1,2,4-triazol-3-yl)-2-butanesulfonamide]",32,
"COc1ncnc(OC)c1-n1c(CC(C)(C)C)nnc1NS(=O)(=O)[C@@H](C)[C@H](C)c1ncc(Cl)cn1 [Example 1.0, (2S,3R)-3-(5-chloro-2-pyrimidinyl)-N-(4-(4,6-dimethoxy-5-pyrimidinyl)-5-(2,2-dimethylpropyl)-4H-1,2,4-triazol-3-yl)-2-butanesulfonamide]",240,
"COc1ncnc(OC)c1-n1c(COC(C)C)nnc1NS(=O)(=O)[C@@H](C)[C@H](OC)c1ncc(Cl)cn1 [Example 79.0, (1R,2S)-1-(5-chloropyrimidin-2-yl)-N-(4-(4.6-dimethoxypyrimidin-5-yl)-5-(isopropoxymethyl)-4H-1,2,4-triazol-3-yl)-1-methoxypropane-2-sulfonamide]",2.9,
